How the values were obtained:
CCRF-CEM = assay: Cytotoxicity against human CCRF-CEM cells assessed as growth inhibition at 10 uM after 48 hrs by sulforhodamine B assay; type: functional; conditions: read-out: GI
HL-60(TB) = assay: Cytotoxicity against human HL-60(TB) cells assessed as growth inhibition at 10 uM after 48 hrs by sulforhodamine B assay; type: functional; conditions: read-out: GI
K562 = assay: Cytotoxicity against human K562 cells assessed as growth inhibition at 10 uM after 48 hrs by sulforhodamine B assay; type: functional; conditions: read-out: GI
MOLT-4 = assay: Cytotoxicity against human MOLT-4 cells assessed as growth inhibition at 10 uM after 48 hrs by sulforhodamine B assay; type: functional; conditions: read-out: GI
RPMI-8226 = assay: Cytotoxicity against human RPMI-8226 cells assessed as growth inhibition at 10 uM after 48 hrs by sulforhodamine B assay; type: functional; conditions: read-out: GI
SR = assay: Cytotoxicity against human SR cells assessed as growth inhibition at 10 uM after 48 hrs by sulforhodamine B assay; type: functional; conditions: read-out: GI
A549 = assay: Cytotoxicity against human A549 cells assessed as growth inhibition at 10 uM after 48 hrs by sulforhodamine B assay; type: functional; conditions: read-out: GI
NCI-H226 = assay: Cytotoxicity against human NCI-H226 cells assessed as growth inhibition at 10 uM after 48 hrs by sulforhodamine B assay; type: functional; conditions: read-out: GI
NCI-H522 = assay: Cytotoxicity against human NCI-H522 cells assessed as growth inhibition at 10 uM after 48 hrs by sulforhodamine B assay; type: functional; conditions: read-out: GI
HCC 2998 = assay: Cytotoxicity against human HCC 2998 cells assessed as growth inhibition at 10 uM after 48 hrs by sulforhodamine B assay; type: functional; conditions: read-out: GI
HCT-15 = assay: Cytotoxicity against human HCT-15 cells assessed as growth inhibition at 10 uM after 48 hrs by sulforhodamine B assay; type: functional; conditions: read-out: GI
HT-29 = assay: Cytotoxicity against human HT-29 cells assessed as growth inhibition at 10 uM after 48 hrs by sulforhodamine B assay; type: functional; conditions: read-out: GI
KM12 = assay: Cytotoxicity against human KM12 cells assessed as growth inhibition at 10 uM after 48 hrs by sulforhodamine B assay; type: functional; conditions: read-out: GI
LOX IMVI = assay: Cytotoxicity against human LOX IMVI cells assessed as growth inhibition at 10 uM after 48 hrs by sulforhodamine B assay; type: functional; conditions: read-out: GI
M14 = assay: Cytotoxicity against human M14 cells assessed as growth inhibition at 10 uM after 48 hrs by sulforhodamine B assay; type: functional; conditions: read-out: GI
UACC-62 = assay: Cytotoxicity against human UACC-62 cells assessed as growth inhibition at 10 uM after 48 hrs by sulforhodamine B assay; type: functional; conditions: read-out: GI
OVCAR-4 = assay: Cytotoxicity against human OVCAR-4 cells assessed as growth inhibition at 10 uM after 48 hrs by sulforhodamine B assay; type: functional; conditions: read-out: GI
NCI/ADR-RES = assay: Cytotoxicity against human NCI-ADR-RES cells assessed as growth inhibition at 10 uM after 48 hrs by sulforhodamine B assay; type: functional; conditions: read-out: GI
ACHN = assay: Cytotoxicity against human ACHN cells assessed as growth inhibition at 10 uM after 48 hrs by sulforhodamine B assay; type: functional; conditions: read-out: GI
CAKI-1 = assay: Cytotoxicity against human CAKI-1 cells assessed as growth inhibition at 10 uM after 48 hrs by sulforhodamine B assay; type: functional; conditions: read-out: GI
SN12C = assay: Cytotoxicity against human SN12C cells assessed as growth inhibition at 10 uM after 48 hrs by sulforhodamine B assay; type: functional; conditions: read-out: GI
UO-31 = assay: Cytotoxicity against human UO-31 cells assessed as growth inhibition at 10 uM after 48 hrs by sulforhodamine B assay; type: functional; conditions: read-out: GI
DU-145 = assay: Cytotoxicity against human DU-145 cells assessed as growth inhibition at 10 uM after 48 hrs by sulforhodamine B assay; type: functional; conditions: read-out: GI
MCF7 [1] = assay: Cytotoxicity against human MCF7 cells assessed as growth inhibition at 10 uM after 48 hrs by sulforhodamine B assay; type: functional; conditions: read-out: GI
T47D = assay: Cytotoxicity against human T47D cells assessed as growth inhibition at 10 uM after 48 hrs by sulforhodamine B assay; type: functional; conditions: read-out: GI
MCF7 [2] = assay: Antiproliferative activity against human MCF7 cells assessed as inhibition of cell growth incubated for 48 hrs by MTT assay; type: functional, cell-based; conditions: MCF7, 48 h
MCF-10A = assay: Cytotoxicity against human MCF10A cells assessed as inhibition of cell growth incubated for 48 hrs by MTT assay; type: cell-based
[3] = Selectivity index, ratio of IC50 for human MCF-10A cells to IC50 for human MCF7 cells; type: toxicity; conditions: MCF-10A cells versus MCF7 cells, read-out: Ratio IC50
[4] = target: Phosphatidylinositol 4,5-bisphosphate 3-kinase catalytic subunit alpha isoform (Homo sapiens, UniProt P42336); assay: Inhibition of PI3Kalpha (unknown origin) using PIP2 as substrate preincubated for 10 mins followed by substrate addition and measured after 1 hr by ELISA
MCF7 [5] = assay: Induction of cell cycle arrest in human MCF7 cells assessed as accumulation of cells at G phase at IC50 concentration by Propidium iodide staining based flow cytometric analysis (reference value: 1.76%); type: functional
MCF7 [6] = assay: Induction of cell cycle arrest in human MCF7 cells assessed as accumulation of cells at G1 phase at IC50 concentration by Propidium iodide staining based flow cytometric analysis (reference value: 61.45%); type: functional
MCF7 [7] = assay: Induction of cell cycle arrest in human MCF7 cells assessed as accumulation of cells at G2/M phase at IC50 concentration by Propidium iodide staining based flow cytometric analysis (reference value: 10.94%); type: functional
MCF7 [8] = assay: Induction of cell cycle arrest in human MCF7 cells assessed as accumulation of cells at S phase at IC50 concentration by Propidium iodide staining based flow cytometric analysis (reference value: 27.61%); type: functional
MCF7 [9] = assay: Induction of apoptosis in human MCF7 cells assessed as early apoptotic cells at 2.25 uM after 48 hrs by annexin V-FITC/propidium iodide staining based flow cytometric analysis (reference value: 0.36%); type: functional
MCF7 [10] = assay: Induction of apoptosis in human MCF7 cells assessed as late apoptotic cells at 2.25 uM after 48 hrs by annexin V-FITC/propidium iodide staining based flow cytometric analysis (reference value: 0.14%); type: functional
MCF7 [11] = assay: Induction of apoptosis in human MCF7 cells assessed as necrotic cells at 2.25 uM after 48 hrs by annexin V-FITC/propidium iodide staining based flow cytometric analysis (reference value: 1.26%); type: functional
[12] = target: Phosphatidylinositol 4,5-bisphosphate 3-kinase catalytic subunit beta isoform (Homo sapiens, UniProt P42338); assay: Inhibition of PI3Kbeta (unknown origin) using PIP2 as substrate preincubated for 10 mins followed by substrate addition and measured after 1 hr by ELISA
[13] = target: T1, Phosphatidylinositol 4,5-bisphosphate 3-kinase catalytic subunit delta isoform (Homo sapiens, UniProt O00329); assay: Inhibition of PI3Kdelta (unknown origin) using PIP2 as substrate preincubated for 10 mins followed by substrate addition and measured after 1 hr by ELISA
T1 sequence (O00329 whole entry): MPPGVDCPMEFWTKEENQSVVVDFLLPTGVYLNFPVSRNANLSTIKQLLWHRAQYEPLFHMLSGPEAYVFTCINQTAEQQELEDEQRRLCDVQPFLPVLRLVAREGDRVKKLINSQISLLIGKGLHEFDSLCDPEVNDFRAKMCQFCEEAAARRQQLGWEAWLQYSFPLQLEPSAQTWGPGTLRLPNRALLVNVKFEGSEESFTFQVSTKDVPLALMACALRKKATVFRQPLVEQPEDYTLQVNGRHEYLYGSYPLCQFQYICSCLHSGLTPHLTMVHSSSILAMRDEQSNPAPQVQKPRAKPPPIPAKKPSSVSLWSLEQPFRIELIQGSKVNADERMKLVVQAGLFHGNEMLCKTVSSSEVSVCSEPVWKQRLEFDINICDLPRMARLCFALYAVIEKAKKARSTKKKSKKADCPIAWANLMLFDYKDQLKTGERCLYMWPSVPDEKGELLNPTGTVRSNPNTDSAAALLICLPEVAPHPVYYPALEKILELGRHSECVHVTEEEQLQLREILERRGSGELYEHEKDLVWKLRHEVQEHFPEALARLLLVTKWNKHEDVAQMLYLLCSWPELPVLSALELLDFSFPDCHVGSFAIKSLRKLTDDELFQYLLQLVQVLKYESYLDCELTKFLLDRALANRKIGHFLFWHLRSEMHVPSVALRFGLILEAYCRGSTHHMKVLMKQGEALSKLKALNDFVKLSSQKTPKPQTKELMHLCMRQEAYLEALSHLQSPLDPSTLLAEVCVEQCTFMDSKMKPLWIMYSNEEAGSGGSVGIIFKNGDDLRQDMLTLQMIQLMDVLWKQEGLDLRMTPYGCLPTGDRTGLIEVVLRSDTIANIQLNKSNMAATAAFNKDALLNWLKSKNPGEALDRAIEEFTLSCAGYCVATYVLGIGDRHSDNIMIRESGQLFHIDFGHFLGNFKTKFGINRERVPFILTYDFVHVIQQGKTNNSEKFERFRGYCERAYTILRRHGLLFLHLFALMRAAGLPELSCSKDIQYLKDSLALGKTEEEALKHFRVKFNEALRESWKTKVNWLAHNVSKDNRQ

Phosphatidylinositol 4,5-bisphosphate 3-kinase catalytic subunit beta isoform, sequence (P42338 whole entry, canonical isoform): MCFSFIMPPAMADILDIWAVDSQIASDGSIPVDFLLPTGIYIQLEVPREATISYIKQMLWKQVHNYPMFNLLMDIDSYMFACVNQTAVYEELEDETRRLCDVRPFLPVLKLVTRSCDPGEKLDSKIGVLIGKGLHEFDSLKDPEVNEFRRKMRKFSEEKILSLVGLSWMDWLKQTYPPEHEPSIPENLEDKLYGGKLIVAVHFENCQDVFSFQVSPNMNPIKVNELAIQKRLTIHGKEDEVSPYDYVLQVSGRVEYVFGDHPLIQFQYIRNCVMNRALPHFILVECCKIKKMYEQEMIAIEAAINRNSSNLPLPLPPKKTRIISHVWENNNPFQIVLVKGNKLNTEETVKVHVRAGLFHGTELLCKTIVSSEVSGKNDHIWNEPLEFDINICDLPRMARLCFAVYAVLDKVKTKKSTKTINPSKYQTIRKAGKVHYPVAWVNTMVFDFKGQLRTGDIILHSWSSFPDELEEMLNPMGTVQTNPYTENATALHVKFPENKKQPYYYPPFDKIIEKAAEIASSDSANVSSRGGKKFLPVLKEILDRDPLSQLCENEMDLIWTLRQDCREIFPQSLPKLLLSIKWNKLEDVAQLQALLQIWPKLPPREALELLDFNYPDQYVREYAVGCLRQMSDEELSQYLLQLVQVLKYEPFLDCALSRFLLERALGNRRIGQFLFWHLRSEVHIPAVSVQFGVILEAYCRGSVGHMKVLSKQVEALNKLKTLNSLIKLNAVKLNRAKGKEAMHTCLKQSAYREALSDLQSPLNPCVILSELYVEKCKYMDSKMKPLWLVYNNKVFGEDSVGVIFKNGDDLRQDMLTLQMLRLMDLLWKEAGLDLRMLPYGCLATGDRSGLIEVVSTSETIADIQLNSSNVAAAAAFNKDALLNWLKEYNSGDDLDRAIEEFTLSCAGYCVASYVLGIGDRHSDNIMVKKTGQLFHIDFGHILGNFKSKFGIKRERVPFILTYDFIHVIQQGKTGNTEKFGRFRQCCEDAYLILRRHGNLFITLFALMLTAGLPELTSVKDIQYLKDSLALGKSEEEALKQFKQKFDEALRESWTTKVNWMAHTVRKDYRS
Phosphatidylinositol 4,5-bisphosphate 3-kinase catalytic subunit alpha isoform, sequence (P42336 whole entry, canonical isoform): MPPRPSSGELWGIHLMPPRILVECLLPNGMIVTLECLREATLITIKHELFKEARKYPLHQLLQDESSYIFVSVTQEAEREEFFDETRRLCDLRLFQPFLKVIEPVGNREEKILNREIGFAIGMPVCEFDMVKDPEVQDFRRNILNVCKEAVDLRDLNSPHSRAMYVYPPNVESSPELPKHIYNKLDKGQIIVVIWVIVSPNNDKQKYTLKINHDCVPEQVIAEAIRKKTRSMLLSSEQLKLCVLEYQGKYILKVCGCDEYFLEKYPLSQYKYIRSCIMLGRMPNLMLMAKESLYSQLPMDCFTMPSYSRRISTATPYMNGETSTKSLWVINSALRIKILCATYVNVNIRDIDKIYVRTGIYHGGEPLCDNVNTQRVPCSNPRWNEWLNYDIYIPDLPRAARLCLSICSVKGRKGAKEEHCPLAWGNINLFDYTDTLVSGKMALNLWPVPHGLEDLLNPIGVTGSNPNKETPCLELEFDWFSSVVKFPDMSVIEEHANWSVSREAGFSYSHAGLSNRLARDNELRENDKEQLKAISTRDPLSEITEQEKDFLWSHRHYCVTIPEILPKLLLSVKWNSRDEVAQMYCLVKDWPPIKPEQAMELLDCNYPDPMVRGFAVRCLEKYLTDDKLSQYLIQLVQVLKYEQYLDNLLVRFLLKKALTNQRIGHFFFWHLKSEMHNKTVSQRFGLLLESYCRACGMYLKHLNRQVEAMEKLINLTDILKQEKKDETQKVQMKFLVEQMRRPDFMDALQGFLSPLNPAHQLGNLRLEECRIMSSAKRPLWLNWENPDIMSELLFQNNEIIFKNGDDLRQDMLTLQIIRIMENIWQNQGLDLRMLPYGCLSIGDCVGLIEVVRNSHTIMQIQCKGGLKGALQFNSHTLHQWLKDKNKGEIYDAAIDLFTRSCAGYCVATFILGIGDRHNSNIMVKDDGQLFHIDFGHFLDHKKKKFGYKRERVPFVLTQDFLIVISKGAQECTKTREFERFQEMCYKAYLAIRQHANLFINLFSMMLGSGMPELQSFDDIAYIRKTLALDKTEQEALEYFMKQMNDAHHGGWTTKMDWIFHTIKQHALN

Work on `FC(F)(F)COc1ccc(-c2nnc(Nc3ccccc3)s2)cc1` yielded an inhibition of growth at 10 µM (CCRF-CEM) of 19.2%, an inhibition of growth at 10 µM (HL-60(TB)) of 12.6% and an inhibition of growth at 10 µM (K562) of 57.4%. The inhibition of growth at 10 µM (MOLT-4) was 24.1%, the inhibition of growth at 10 µM (RPMI-8226) was 13.4% and the inhibition of growth at 10 µM (SR) was 39.3%. The inhibition of growth at 10 µM (A549) was 15%, the inhibition of growth at 10 µM (NCI-H226) was 20.5% and the inhibition of growth at 10 µM (NCI-H522) was 36.7%. For the same compound, the inhibition of growth at 10 µM (HCC 2998) was 27.5%, the inhibition of growth at 10 µM (HCT-15) was 50.9% and the inhibition of growth at 10 µM (HT-29) was 45.7%. It also gave an inhibition of growth at 10 µM (KM12) of 57.2%, an inhibition of growth at 10 µM (LOX IMVI) of 18.8% and an inhibition of growth at 10 µM (M14) of 12.8%. The inhibition of growth at 10 µM (UACC-62) was 24.4%, the inhibition of growth at 10 µM (OVCAR-4) was 12.8% and the inhibition of growth at 10 µM (NCI/ADR-RES) was 10.8%. The inhibition of growth at 10 µM (ACHN) was 16.1%, the inhibition of growth at 10 µM (CAKI-1) was 50% and the inhibition of growth at 10 µM (SN12C) was 13.1%. It also gave an inhibition of growth at 10 µM (UO-31) of 21.4%, an inhibition of growth at 10 µM (DU-145) of 14.8% and an inhibition of growth at 10 µM (MCF7 [1]) of 21.2%. It also gave an inhibition of growth at 10 µM (T47D) of 27.7%, an IC50 (MCF7 [2]) of 2.25 µM and an IC50 (MCF-10A) of 38 µM. For the same compound, the selectivity ratio [3] was 16.9, the IC50 [4] was 19.4 µM and the Activity (MCF7 [5]) was 26.96%. It also gave an Activity (MCF7 [6]) of 66.34%, an Activity (MCF7 [7]) of 4.55% and an Activity (MCF7 [8]) of 29.11%. For the same compound, the Activity (MCF7 [9]) was 4.15%, the Activity (MCF7 [10]) was 13.09% and the Activity (MCF7 [11]) was 9.72%. It also gave an IC50 [12] of 30.7 µM and an IC50 [13] of 73.7 µM.
